Measured values as given in US20220354818A1, “METHODS FOR TREATING BRAIN INJURY OR COGNITIVE DYSFUNCTION BY PHARMACOLOGICAL ENHANCMENT OF M-TYPE POTASSIUM ION CURRENTS IN NEURONS” (Advanced Neuroresearch Therapeutics LLC, priority 2019, published 2022).
“Also recorded” adds a separate entry of the source.

Legend:
[1] = system: mice subjected to one blunt TBI, pentylenetetrazol (PTZ); experiment: PTZ-induced seizure susceptibility after one blunt TBI (CCCI); format: in vivo, mouse; settings: RTG at 1 mg/kg; PTZ 35 mg/kg s.c. fifth day post-TBI
Source text: Stimulation with PTZ induced the occurrence of clonic and tonic-clonic seizures in TBI-subjected mice.

[2] = system: mice subjected to one blunt TBI, PTZ; experiment: Treatment window study: PTZ-induced seizure duration after one blunt TBI; format: in vivo, mouse
Protocol: Mice were video-EEG monitored for 24 hours after stimulation with a normally sub-seizure threshold dose of PTZ (35 mg/kg; s.c.) administered on the fifth day post-TBI, which caused the mice to respond with prolonged seizures. […] A TBI cohort (vehicle only) was also assessed for control purposes.

sympathetic neuron = experiment: Action potential firing in a sympathetic neuron, current-clamp
Source text: Various currents are applied in “current-clamp” mode 44 ranging from 50 pA to −100 pA, and the resulting AP firing recorded.

neurons = experiment: Fluoro Jade B staining of neuronal cell death after CCCI; format: in vivo, mouse; settings: six days after CCCI; RTG 30 minutes post-TBI
Protocol: Flouro Jade B (FJB) staining was performed to assay neuronal cell death histologically and detect the degree of neurodegeneration six days after CCCI. Staining was performed as previously described.
Six days after CCCI, mice were euthanized via transcardial perfusion with PBS followed by 4% (w/v) paraformaldehyde (PFA). Brains were removed, post-fixed overnight in 4% PFA (Electron Microscopy Sciences), transferred into 30% (w/v) sucrose in PBS and kept at 4° C. for 3 days. […]
Ipsilateral cortical images (fluorescence images of FJB and counterstained DAPI) were taken by a Nikon Eclipse Ti with camera coolSNAP HQ^2 (confocal) microscope using a 20× objective (N.A. 0.75). Fluorescence excitation-emission for Fluoro Jade and DAPI were 470/40-500 and 350/50-460, respectively.
Cell count was obtained by nonbiased automatic quantification with ImageJ/FIJI (NIH, USA) particle analysis. […] After background subtraction and image threshold (1.05%), FIB positive cells were detected using the “analyze particles” (size: 20-100, circularity: 0.00-1.00) function of ImageJ. These parameters determined the pixel size and circularity of the acceptable ROIs and were used to identify cell bodies automatically.

c-Fos = c-Fos expression (FosTRAP mice) in hippocampal CA1 after blunt TBI; format: in vivo, mouse; settings: tamoxifen 30 days after single blunt TBI; acute RTG treatment
Source text: Transgenic “FosTRAP” mice were used to study neuronal activity in sub-cortical regions following blunt TBI (the CCCI model as described above). These mice express the fluorescent protein, tdTomato, under the control of the neuronal promoter c-Fos, an “early intermediate gene” transcriptional factor that correlates well with heavy neuronal activity. Accordingly, whenever neurons express c-Fos, tdTomato is also expressed, allowing for an optical reporter of prior neuronal activity.
Because these transgenic mice express tdTopmato via the tamoxifen-inducible Cre/IoxP system, mice were injected (i.p.) with tamoxifen (75 mg/kg) 30 days after a single blunt TBI (i.e., CCCI), and samples were collected 5 days after injection.
Slices (200 μm) of each collected sample were infused with 4% (w/v) PFA for 10 minutes at RT, washed 5× in PBS and blocked with 8% (v/v) donkey serum (Sigma-Aldrich) diluted in PBS, 0.1% (v/v) Triton X-100 (Sigma-Aldrich), and 0.1% (v/v) Tween 20 (Thermo Fisher Scientific). […] A Nikon Eclipse FN1 microscope with 10× and 40× Plan Fluor objectives was used for detection of fluorescence. […] Cell count was obtained by non-biased automatic quantification with ImageJ. […] ROIs were determined automatically using the “analyze particles” function of ImageJ, with size set to 200-8000 and circularity set to 0.00-1.00.

CCOC(=O)Nc1ccc(NCc2ccc(F)cc2)cc1N [RTG, 2-amino-4-(4-fluorobenzylamino)-1-ethoxycarbonylaminobenzene]
occurrence of PTZ-induced seizures [1]: completely blocked the occurrence of PTZ-induced seizures
PTZ-induced seizure duration ([2]; RTG 1 mg/kg i.p. at 1-hour post-TBI): significantly reduced induced seizure duration
PTZ-induced seizure duration ([2]; RTG 1 mg/kg i.p. at 2 hours and 6 hours post-TBI): Lesser effects were observed
action potential firing in response to stimuli (sympathetic neuron): Complete silencing of the neuron occurs
Fluoro Jade B labeling of neurons (neuronal death) (neurons): significantly higher FJB staining as compared to TBI+RTG cortical slices; also recorded: labeling of brain neurons by FJB was minimal
c-Fos expression, hippocampal CA1 (c-Fos): significantly less c-Fos than the TBI cohort
